Broadly, the IC50 is the concentration needed to halve the response being measured.

T1 sequence (Q99705 whole entry): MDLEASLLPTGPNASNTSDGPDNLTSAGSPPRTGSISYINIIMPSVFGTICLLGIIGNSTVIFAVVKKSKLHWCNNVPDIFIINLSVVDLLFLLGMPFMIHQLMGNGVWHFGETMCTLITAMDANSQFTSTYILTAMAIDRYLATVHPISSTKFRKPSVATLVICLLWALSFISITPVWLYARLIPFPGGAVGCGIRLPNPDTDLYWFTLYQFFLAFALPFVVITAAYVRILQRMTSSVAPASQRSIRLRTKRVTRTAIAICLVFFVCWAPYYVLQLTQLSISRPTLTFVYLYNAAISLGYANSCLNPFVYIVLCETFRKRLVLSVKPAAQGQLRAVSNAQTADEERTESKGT

This assay has as its target T1, human MCH receptor (Homo sapiens, UniProt Q99705).
T1 construct: expressed in transfected cells
The experiment in a line: Functional IC50 of MCH1R antagonists: cellular calcium flux (FLIPR) after addition of agonist MCH. In kind it is cell-based. The note with it: recombinant HEK293 cell line expressing the human MCH receptor. An excerpt:
Influence on the MCH receptor in vitro; determination of functional IC50 values of MCH1R antagonists
Cloning of the cDNA for the human MCH receptor, preparation of a recombinant HEK293 cell line which expresses the human MCH receptor, and functional measurements with the recombinant cell line took place in analogy to the description by Audinot et al. (J. Biol. Chem. 276, 13554-13562, 2001). A difference from the reference was, however, the use of the plasmid pEAK8 from EDGE Biosystems (USA) for the construction of the expression vector. The host used for the transfection was a transformed HEK cell line named “PEAK Stable Cells” (likewise from EDGE Biosystems). Functional measurements of the cellular calcium flux after addition of agonist (MCH) in the presence of ligand of the invention took place with the aid of the FLIPR apparatus from Molecular Devices (USA), using protocols of the apparatus manufacturer. The compounds of the invention show a significant inhibition (>30%) of the signal induced by the agonist at a concentration of 100 μM, preferably at 10 μM, particularly preferably at 1 μM, very particularly preferably at 100 nM and even more particularly preferably at 10 nM.
Table 8 summarizes the results which were obtained by the above described calcium […] assay.
For orientation: A change in cytosolic calcium serves as a functional read-out for many receptors and channels.
For the compound `CCCCOc1ccc2c(c1)CCN(c1ccc(O[C@H]3C[C@H]4CC[C@@H](C3)N4C)c(Cl)c1)C2=O` [Example 1, 6-Butoxy-2-[3-chloro-4-((1R,3R,5S)-8-methyl-8-azabicyclo[3.2.1]oct-3-yloxy)-phenyl]-3,4-dihydro-2H-isoquinolin-1-one], the 50% inhibitory concentration (IC50) stood at 930 nM. As for `CCCCOc1ccc2c(c1)CCN(c1ccc(OCCN3CCCC3)c(OC)c1)C2=O` [Example 6], the figure is 270 nM. As for `CCCCOc1ccc2c(c1)CCN(c1ccc(OC[C@@H]3CCCN4CCCC[C@H]34)cc1)C2=O` [Example 9], the IC50 was determined as 870 nM. `COCCOc1ccc2c(c1)CCN(c1ccc(OCCN3CCCC3)c(OC)c1)C2=O` [Example 15]: the IC50 came to 5440 nM. `CN1[C@@H]2CC[C@H]1C[C@@H](Oc1ccc(N3CCc4cc(OCC5CCC5)ccc4C3=O)cc1Cl)C2` [Example 17]: the IC50 came out at 1140 nM. As for `CN1[C@@H]2CC[C@H]1C[C@@H](Oc1ccc(N3CCc4cc(OC5CSC5)ccc4C3=O)cc1Cl)C2` [Example 26, 2-[3-Chloro-4-((1R,3R,5S)-8-methyl-8-azabicyclo[3.2.1]oct-3-yloxy)phenyl]-6-(thietan-3-yloxy)-3,4-dihydro-2H-isoquinolin-1-one], the figure is 14800 nM; as for `CN1[C@@H]2CC[C@H]1C[C@@H](Oc1ccc(N3CCc4cc(C#CC5(O)CCCC5)ccc4C3=O)cc1Cl)C2` [Example 34], 1150 nM; as for `CCC(O)C#Cc1ccc2c(c1)CCN(c1ccc(O[C@H]3C[C@H]4CC[C@@H](C3)N4C)c(Cl)c1)C2=O` (stereo partly drawn) [Example 42], 780 nM. Regarding `CN1[C@@H]2CC[C@H]1C[C@@H](Oc1ccc(N3CCc4cc(C#CC(C)(C)O)ccc4C3=O)cc1Cl)C2` [Example 45], the IC50 was 1110 nM. As for `Cc1ccc(-c2cc3c(s2)C(=O)N(c2ccc(OCCN(C)C)cc2)CC3)cc1` [Example 55, 6-[4-(2-Dimethylaminoethoxy)phenyl]-2-p-tolyl-5,6-dihydro-4H-thieno[2,3-c]pyridin-7-one], the figure is 4900 nM. For `CN1[C@@H]2CC[C@H]1C[C@@H](Oc1ccc(-n3ccc4cc(OC[C@@H]5CCCO5)ccc4c3=O)cc1)C2` [Example 56, 2-[4-((1R,3R,5S)-8-Methyl-8-azabicyclo[3.2.1]oct-3-yloxy)phenyl]-6-[(S)-1-(tetrahydrofuran-2-yl)methoxy]-2H-isoquinolin-1-one] the value was 160 nM; for `COc1cc(-n2ccc3cc(OC[C@@H]4CCCO4)ccc3c2=O)ccc1OCCN1CCCC1` [Example 65], 130 nM; for `COc1cc(-n2ccc3cc(OC[C@H]4CCCO4)ccc3c2=O)ccc1OC1CN2CCC1CC2` (stereo partly drawn) [Example 69], 1180 nM. For `Cc1cc(-n2ccc3cc(OC[C@H]4CCCO4)ccc3c2=O)ccc1O[C@H]1C[C@H]2CC[C@@H](C1)N2CC(C)(C)O` [Example 72] the value was 490 nM; for `COCCN1[C@@H]2CC[C@H]1C[C@@H](Oc1ccc(-n3ccc4cc(OC[C@H]5CCCO5)ccc4c3=O)cc1C)C2` [Example 74], 140 nM; for `O=c1c2ccc(OC[C@H]3CCCO3)cc2ccn1-c1ccc(O[C@H]2C[C@H]3CC[C@@H](C2)N3C2CC2)c(F)c1` [Example 75], 5010 nM. As for `Cc1cc(-n2ccc3cc(OC[C@H]4CCCO4)ccc3c2=O)ccc1O[C@H]1C[C@H]2CC[C@@H](C1)N2Cc1ncc[nH]1` [Example 81], the concentration for half-maximal inhibition (IC50) stood at 460 nM. As to `COc1cc(-n2ccc3cc(OC[C@@H]4CCCO4)ccc3c2=O)ccc1OCCN1CC2CCC2C1` (stereo partly drawn) [Example 83, 2-{4-[2-(3-Azabicyclo[3.2.0]hept-3-yl)ethoxy]-3-methoxyphenyl}-6-[(S)-1-(tetrahydrofuran-2-yl)methoxy]-2H-isoquinolin-1-one], the 50% inhibitory concentration (IC50) was determined as 840 nM.

As for `COc1cc(-n2ccc3cc(OC[C@@H]4CCCO4)ccc3c2=O)ccc1OCCN1CC2CCCCC2C1` (stereo partly drawn) [Example 84], the IC50 stood at 250 nM. On to `COc1cc(-n2ccc3cc(OC[C@@H]4CCCO4)ccc3c2=O)ccc1OCCN1C2CCC1CC2` [Example 86], for which the IC50 came out at 210 nM.

Consider `CCCCOc1ccc2c(c1)CCN(c1ccc(O[C@H]3C[C@H]4CC[C@@H](C3)N4CCCF)cc1)C2=O` [Example 89, 6-Butoxy-2-{4-[(1R,3R,5S)-8-(3-fluoropropyl)-8-azabicyclo[3.2.1]oct-3-yloxy]phenyl}-3,4-dihydro-2H-isoquinolin-1-one], for which the IC50 is 4390 nM.

The values above are taken from US8501771B2, “Aminoalcohol-substituted aryldihydroisoquinolinones, process for their preparation and their use as medicaments” (Sanofi, priority 2006, dated 2013).
